Assay results reported in patent US12502414B2, “Second generation Seneca Valley virus oncolytic therapy: compositions and methods thereof” (SENECA THERAPEUTICS, INC., priority 2019, dated 2025).
“Also recorded” adds a separate entry of the source.

Columns and labels:
[1] = tested on: SVV replication in HeLa cells; experiment: SVV replication in Tem 8+ HeLa cells, virus yield by plaque assay; assay type: cell-based
Method: FIG. 2A. SVV replication in HeLa cells can be enhanced with staurosporine (SSP). FIG. 2B. Inhibition of SVV replication by IFN-α can be reversed with SSP in Per.C6 cells. TEM 8+ HeLa cells or Per.C6 cells were pretreated with 500 units IFN-α before infection with SVV at MOI 1. 300 nM SSP was added at time 0. Virus yields determined by plaque assay 24 h post infection. Results are representative of three independent experiments.
FIGS. 3A-3B are series of histogram depicting the effect of Trichostatin A on SVV replication. FIG. 3A. SVV replication in HeLa cells can be enhanced with Trichostatin A. FIG. 3B. Inhibition of SVV replication by IFN-α can be reversed with Trichostatin A in Per.C6 cells. TEM 8+ HeLa cells or Per.C6 cells were pretreated with 500 units IFN-α before infection with SVV at MOI 1. 1 μM Trichostatin A was added at time 0. Virus yields determined by plaque assay 24 h post infection. Results are representative of three independent experiments.
FIGS. 4A-4B are series of histogram depicting the effect of Torin 2 A on SVV replication. FIG. 4A. SVV replication in HeLa cells can be enhanced with Torin 2 A. FIG. 4B. Inhibition of SVV replication by IFN-α can be reversed with Torin 2 in Per.C6 cells. TEM 8+ HeLa cells or Per.C6 cells were pretreated with 500 units IFN-α before infection with SVV at MOI 1. 2 μM Torin 2 was added at time −30 min. Virus yields determined by plaque assay 24 h post infection. Results are representative of three independent experiments.
Cells and viruses. Cells were maintained in DMEM supplemented with 10% fetal bovine serum (Per.C6) or 10% bovine serum (HeLa), 2 mM L-glutamine (Invitrogen), and 1% penicillin-streptomycin. Viral stocks were produced by growth in Per.C6 cells as previously described (23).
Cytokines and Inhibitors. IFN-α and Trichostatin A were purchased from Sigma, Inc. (St. Louis, MO). […] All compounds were dissolved in DMSO.
Virus infections. Infections were performed in 35 mm dishes. Cells were counted at the time of infection and viral stocks were diluted in PBS+0.01% BSA (Sigma, St. Louis, MO) for infections at the appropriate MOI. One hundred microliters of diluted virus were used to infect each plate at 37° C. for 45 min with rocking. Cells were then washed twice with PBS and covered with 1 mL of appropriate media; samples taken at this time are called 0 time point. Mock infected cells were treated with PBS+0.01% BSA instead of virus. Three independent infections were done.
Plaque assays. […]
Removal of acetyl moieties from histones is catalyzed by enzymes known as histone deacetylases (HDACs) and leads to […]. […] Sixteen hours after infection virus yields were determined by plaque assay (FIG. 3A). […]

[2] = tested on: SVV replication in Per.C6 cells; experiment: SVV replication in Per.C6 cells with or without IFN-α pretreatment, virus yield by plaque assay; assay type: cell-based, human; details: Per.C6 cells pretreated with 500 units IFN-α
Method: Per.C6 cells were pretreated with 500 units IFN-α before infection with SVV at MOI=1. Virus yields were determined by plaque assay 24 h post infection.
Plaque assays. Samples for virus titration were produced by harvesting cells and medium, followed by three cycles of freezing and thawing and then by centrifugation at 5000×g for 5 min. All titrations were done on monolayers of Per.C6 cells in 35 mm plates. Ten-fold serial dilutions of virus were made in PBS+0.1 mg/ml BSA (Sigma) and 0.1 mL of each dilution was added per well. Plates were incubated at 37° C. for 45 min with rocking and overlay was then added. A two-overlay system was used. […] Plaque assays were incubated for 72 hrs at 37° C. Cells were then fixed with 10% TCA (Sigma) and stained with 0.1% crystal violet (Sigma) in 20% ethanol.

Compound: CN[C@@H]1C[C@H]2O[C@@](C)([C@@H]1OC)n1c3ccccc3c3c4c(c5c6ccccc6n2c5c31)C(=O)NC4 [staurosporine]
- production of infectious SVV (virus yields by plaque assay) ([1]; Tem 8+ HeLa cells, SVV MOI 1, 300 nM SSP added at time 0, 24 h post infection): increased production of infectious SVV

Compound: CC(/C=C/C(=O)NO)=C\[C@@H](C)C(=O)c1ccc(N(C)C)cc1 [Trichostatin A]
- SVV infection of non-permissive HeLa cells (virus yields by plaque assay) ([1]; HeLa cells grown with Trichostatin A for 24 hours before infection, yields sixteen hours after infection (legend: 1 μM at time 0, 24 h)): more efficient
- effect on inhibition of SVV replication by IFN-α ([2]; SVV MOI 1, 1 μM Trichostatin A added at time 0, 24 h post infection): reversed the inhibitory effect of IFN-α on SVV replication

Compound: IFN-α
- production of infectious SVV (virus yields by plaque assay) ([2]; SVV MOI 1, 24 h post infection): significantly reduced production of infectious SVV; also recorded: reduced virus yields

Compound: Nc1ccc(-c2ccc3ncc4ccc(=O)n(-c5cccc(C(F)(F)F)c5)c4c3c2)cn1 [Torin 2]
- enhanced SVV replication by Torin 2 in the presence of IFN-α ([1]; HeLa cells pretreated with 500 units IFN-α, 2 μM Torin 2 at −30 min, SVV MOI 1, 24 h post infection): not reduced in the presence of IFN-α
- SVV yields (plaque assay) ([1]; semi-permissive HeLa cells, SVV MOI 1, 2 μM Torin 2 added at time −30 min, 24 h post infection): substantially increased SVV yields
- SVV replication in the presence of IFN-α ([2]; 2 μM Torin 2 at −30 min, SVV MOI 1, 24 h post infection): promoted SVV replication
